Results from patent publication US20050112573A1, “Method of detecting toxic substance” (priority 2001, published 2005).

Test system: yeast genes (level of expressed mRNA)
Assay: DNA chip analysis of expressed mRNA of yeast genes after 2 h culture with a toxic chemical substance
Type: cell-based, Saccharomyces cerevisiae S288C
Protocol: Yeast (Saccharomyces cerevtisiae S288C (α SUC2mal mel gap2 CUP1)) were cultured at 25° C. on YPD medium (yeast extract 1%, polypepton 2%, glucose 2%). One of toxic chemical substances was added to the cell at logarithmic growth phase, and the cell was further cultured for two hours. Cell was cultured without any chemical substance in the same condition, and was used as control. Concentrations of the chemical substances were defined to inhibit the growth of the yeast but not lead to death.
After the completion of cultivation, the culture was centrifuged to collect the cells. To the cells, sodium acetate buffer (50 mM sodium acetate, 10 mM EDTA, 1% SDS) was added, and the mixture was shaken at 65° C. for five minutes, followed by returning to room temperature, and obtaining the supernatant, which procedure was repeated two times. To the supernatant, ½ amount of a solution of phenol/chloroform was added, and the mixture was centrifuged to give a supernatant, which was added with an equal amount of chloroform, and the mixture was centrifuged to give a supernatant. To the supernatant, an equal amount of isopropanol containing 0.3 M sodium acetate was added, and the mixture was allowed to stand at room temperature for 30 minutes, after which the mixture was centrifuged to give a sediment of the whole RNAs. Seventy % ethanol was added to the sediment, and the mixture was again centrifuged to give a sediment, which was then dried and dissolved in water. mRNA was isolated from the whole RNAs as followings. In view of the fact that a poly A chain is attached to the 3′ terminus of mRNA, a polynucleotide having a poly T structure which was immobilized on the surface of latex beads was used to trap the mRNA, and then the mRNA was washed and eluted with spine column (Oligotex-dT30<Super>mRNA Purification Kit, Takara). Reverse transcription of the mRNA was conducted with a reverse transcriptase (Super Script II Reverse Transcriptase; catalogue No. 18064-014, GibcoBRL) using fluorescence-labeled nucleotides to give cDNAs that were introduced with Cy3-dUTP or Cy5-dUTP during the reverse transcription.
The labeled cDNAs were dissolved in TE buffer (10 mM Tris-HCl/1 mM EDTA, pH8.0), and the solution was dropped on the DNA chip containing the whole genes of yeast (DNA Chip Research Inc. Japan) so that the cDNAs were hybridized on the DNA chip at 65° C. for over 12 hours. The fluoresces intensity of the DNA chip was read with a scanner, and the ratio relative to the fluorescence intensity resulting from the absence of chemical substance was estimated as the following, which is shown in Tables 1 to 9: [formula]
In the Tables, “Intensity” indicated in the rightmost column is a value of the level of expressed mRNA of each gene in control cells as divided by the average level of the expressions of the whole genes.

Na2As [(1)]
The level of expressed mRNA in the presence of chemical substance/ (yeast gene YKL086W, ratio to control without chemical): 1.0 | The level of expressed mRNA in the presence of chemical substance/The level of expressed mRNA in the absence of chemical substance (yeast gene YKL096W): 1.4 | The level of expressed mRNA in the presence of chemical substance/The level of expressed mRNA in the absence of chemical substance (yeast gene YKL139W): 0.9 | The level of expressed mRNA in the presence of chemical substance/ (yeast gene YKL151C, ratio to control without chemical substance, 2 h culture): 1.2 | The level of expressed mRNA in the presence of chemical substance/ (yeast gene YKL153W, ratio to control without chemical substance, 2 h culture): 1.1 | The level of expressed mRNA in the presence of chemical substance/The level of expressed mRNA in the absence of chemical substance (yeast gene YKL165C): 0.5 | The level of expressed mRNA in the presence of chemical substance/The level of expressed mRNA in the absence of chemical substance (yeast gene YKL193C): 1.3 | The level of expressed mRNA in the presence of chemical substance/ (yeast gene YKL195W, ratio to control without chemical substance, 2 h culture): 0.8 | The level of expressed mRNA in the presence of chemical substance/in the absence of chemical substance (yeast gene YKR009C): 1.0 | The level of expressed mRNA in the presence of chemical substance/The level of expressed mRNA in the absence of chemical substance (yeast gene YKR014C): 1.1 | The level of expressed mRNA in the presence of chemical substance/ (yeast gene YKR091W, ratio to control without chemical): 1.5 | The level of expressed mRNA in the presence of chemical substance/ (yeast gene YLR054C, ratio to control without chemical substance, 2 h culture): 2.0 | The level of expressed mRNA in the presence of chemical substance/The level of expressed mRNA in the absence of chemical substance (yeast gene YLR120C): 1.2 | The level of expressed mRNA in the presence of chemical substance/The level of expressed mRNA in the absence of chemical substance (yeast gene YLR136C): 1.3 | The level of expressed mRNA in the presence of chemical substance/ (yeast gene YLR149C, ratio to control without chemical substance, 2 h culture): 1.4 | The level of expressed mRNA in the presence of chemical substance/ (yeast gene YLR152C, ratio to control without chemical substance, 2 h culture): 0.7 | The level of expressed mRNA in the presence of chemical substance/The level of expressed mRNA in the absence of chemical substance (yeast gene YLR178C): 1.7 | The level of expressed mRNA in the presence of chemical substance/ (yeast gene YLR194C, ratio to control without chemical): 2.1 | The level of expressed mRNA in the presence of chemical substance/The level of expressed mRNA in the absence of chemical substance (yeast gene YLR250W): 1.5 | The level of expressed mRNA in the presence of chemical substance/ (yeast gene YLR324W, ratio to control without chemical substance, 2 h culture): 0.7 | The level of expressed mRNA in the presence of chemical substance/The level of expressed mRNA in the absence of chemical substance (yeast gene YLR327C): 5.5 | The level of expressed mRNA in the presence of chemical substance/ (yeast gene YLR350W, ratio to control without chemical substance, 2 h culture): 1.2 | The level of expressed mRNA in the presence of chemical substance/in the absence of chemical substance (yeast gene YLR351C): 1.0 | The level of expressed mRNA in the presence of chemical substance/The level of expressed mRNA in the absence of chemical substance (yeast gene YLR356W): 1.0 | The level of expressed mRNA in the presence of chemical substance/The level of expressed mRNA in the absence of chemical substance (yeast gene YLR362W): 1.1 | The level of expressed mRNA in the presence of chemical substance/in the absence of chemical substance (yeast gene YLR375W): 0.9 | The level of expressed mRNA in the presence of chemical substance/ (yeast gene YLR387C, ratio to control without chemical substance, 2 h culture): 0.9 | The level of expressed mRNA in the presence of chemical substance/The level of expressed mRNA in the absence of chemical substance (yeast gene YLR429W): 0.7 | The level of expressed mRNA in the presence of chemical substance/ (yeast gene YLR460C, ratio to control without chemical substance, 2 h culture): 2.1 | The level of expressed mRNA in the presence of chemical substance/ (yeast gene YML117W, ratio to control without chemical substance, 2 h culture): 0.9 | The level of expressed mRNA in the presence of chemical substance/The level of expressed mRNA in the absence of chemical substance (yeast gene YMR004W): 0.9 | The level of expressed mRNA in the presence of chemical substance/ (yeast gene YMR009W, ratio to control without chemical substance, 2 h culture): 2.3 | The level of expressed mRNA in the presence of chemical substance/ (yeast gene YMR067C, ratio to control without chemical substance, 2 h culture): 0.9 | The level of expressed mRNA in the presence of chemical substance/ (yeast gene YMR090W, ratio to control without chemical substance, 2 h culture): 6.9 | The level of expressed mRNA in the presence of chemical substance/The level of expressed mRNA in the absence of chemical substance (yeast gene YMR094W): 1.0 | The level of expressed mRNA in the presence of chemical substance/ (yeast gene YMR095C, ratio to control without chemical): 1.1 | The level of expressed mRNA in the presence of chemical substance/ (yeast gene YMR097C, ratio to control without chemical substance, 2 h culture): 1.5 | The level of expressed mRNA in the presence of chemical substance/ (yeast gene YMR102C, ratio to control without chemical substance, 2 h culture): 1.0 | The level of expressed mRNA in the presence of chemical substance/The level of expressed mRNA in the absence of chemical substance (yeast gene YMR104C): 1.9 | The level of expressed mRNA in the presence of chemical substance/ (yeast gene YMR107W, ratio to control without chemical substance, 2 h culture): 5.0 | The level of expressed mRNA in the presence of chemical substance/ (yeast gene YMR180C, ratio to control without chemical substance, 2 h culture): 1.2 | The level of expressed mRNA in the presence of chemical substance/ (yeast gene YMR184W, ratio to control without chemical substance, 2 h culture): 1.3 | The level of expressed mRNA in the presence of chemical substance/ (yeast gene YMR191W, ratio to control without chemical substance, 2 h culture): 1.3 | The level of expressed mRNA in the presence of chemical substance/The level of expressed mRNA in the absence of chemical substance (yeast gene YMR219W): 0.7 | The level of expressed mRNA in the presence of chemical substance/The level of expressed mRNA in the absence of chemical substance (yeast gene YMR226C): 1.1 | The level of expressed mRNA in the presence of chemical substance/in the absence of chemical substance (yeast gene YMR267W): 0.8 | The level of expressed mRNA in the presence of chemical substance/The level of expressed mRNA in the absence of chemical substance (yeast gene YMR275C): 0.7 | The level of expressed mRNA in the presence of chemical substance/The level of expressed mRNA in the absence of chemical substance (yeast gene YMR276W): 0.6 | The level of expressed mRNA in the presence of chemical substance/in the absence of chemical substance (yeast gene YMR278W): 0.7 | The level of expressed mRNA in the presence of chemical substance/in the absence of chemical substance (yeast gene YMR293C): 0.9 | The level of expressed mRNA in the presence of chemical substance/ (yeast gene YMR295C, ratio to control without chemical substance, 2 h culture): 1.7 | The level of expressed mRNA in the presence of chemical substance/ (yeast gene YMR316W, ratio to control without chemical substance, 2 h culture): 3.2 | The level of expressed mRNA in the presence of chemical substance/The level of expressed mRNA in the absence of chemical substance (yeast gene YNL006W): 1.1 | The level of expressed mRNA in the presence of chemical substance/The level of expressed mRNA in the absence of chemical substance (yeast gene YNL007C): 0.7 | The level of expressed mRNA in the presence of chemical substance/ (yeast gene YNL044W, ratio to control without chemical substance, 2 h culture): 1.3
